Data from patent US20050186659A1, “Methods for protein purification” (priority 2004, published 2005).
Values joined by “and” are separate entries in the source; they are usually repeats but may differ in a detail not shown here. Identical values can stand only once.

Legend:
11β-HSD1 [1] = target: T1, 11β-HSD1 (Homo sapiens, UniProt P28845); assay: Ki values for 11β-HSD1 (stated, no method given); format: biochemical; conditions: range in words only
Target sequence in this assay (P28845 24-292): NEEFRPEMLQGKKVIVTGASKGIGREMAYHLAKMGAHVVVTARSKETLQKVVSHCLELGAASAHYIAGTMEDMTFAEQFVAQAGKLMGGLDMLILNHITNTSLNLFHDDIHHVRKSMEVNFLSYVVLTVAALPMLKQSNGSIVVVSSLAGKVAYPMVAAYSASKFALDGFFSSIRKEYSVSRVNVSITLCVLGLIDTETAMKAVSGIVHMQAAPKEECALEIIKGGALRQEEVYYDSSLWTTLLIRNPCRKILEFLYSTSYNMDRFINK

guinea pig 11β-HSD1 = target: T2, guinea pig 11β-HSD1 (Cavia porcellus, UniProt Q6QLL4); assay: GuHCl-induced inactivation (conformational stability) monitored by cortisol dehydrogenation activity; format: biochemical; conditions: guinea pig enzyme, control (no addition) 0.51
T2 construct: the first 23 amino acid residues (19 for the rat variant) of the protein, which includes the distal N-terminus and the transmembrane domain, were omitted; His6 (N); made in house; host or cells: E. coli BL21(DE3), pET28a derivative, fermentor culture
Protocol: (§1) Stability measurements. The conformational stability was examined by monitoring GuHCl-induced solvent inactivation of 11β-HSD1. Protein solutions (5-10 μM) were incubated overnight at room temperature in various concentrations of GuHCl (0-2 M) buffered with 50 mM Tris-HCl, pH 8.0. The inactivation of the enzyme was monitored by the decrease in dehydrogenase activity (25 μM cortisol, 50 μM NADP^+) using the fluorimetric assay described above. The stability data were analyzed by nonlinear regression, fitting to the equation described by Santoro and Bolen (24) using the program GraFit, version 5.0 (Erithacus Software, Staines, UK). The midpoint concentration of inactivation, Cm, was determined from the ratio, ΔG^H2O/m, of the fitted parameters.

11β-HSD1 [2] = target: T1, 11β-HSD1; assay: Yield of soluble recombinant 11β-HSD1 expressed in E. coli BL21(DE3), SDS-PAGE of cleared lysate; parameters: the first 23 amino acid residues (19 for the rat variant) of the protein, which includes the distal N-terminus and the transmembrane domain, were omitted; made in house; host or cells: E. coli BL21(DE3), pET28a derivative, co-expression of GroEL/ES; conditions: GroEL/ES co-overexpression in combination with inhibitor in growth medium; estimated by SDS-PAGE
Excerpt: FIGS. 1A and 1B depict expression of soluble 11β-HSD1 as analyzed by SDS-PAGE. Cleared lysates from induced cultures of BL21(DE3) containing pET28a derivatives for expression of human (FIG. 1A) and rat (FIG. 1B) 11β-HSD1. Lane 1, SeeBlue Plus2 pre-stained protein standard. lane 2, overexpression of 11β-HSD1; lane 3, co-overexpression of 11β-HSD1 and GroEL/ES; lane 4, overexpression of 11β-HSD1 in presence of the inhibitor BVT.24829; lane 5, co-overexpression of 11β-HSD1 and GroEL/ES in presence of BVT.24829.
Two different strategies were employed to optimize production of soluble 11β-HSD1. For expression of the human and rat variant, the cells were grown in shake flasks using Terrific Broth medium supplemented with 50 μg/ml kanamycin and 34 μg/ml chloramphenicol. To increase the yield of soluble human and rat 11β-HSD1, the BL21(DE3) cells were co-transformed with the plasmid pBV530, harboring the genes for the E. coli chaperonin GroEL/ES under control of the araBAD promoter. The cells were then grown at 25° C. to a cell density corresponding to an A600 value of 0.5-1.0. To induce expression of GroEL/ES, arabinose was added to a final concentration of 0.05%. 45-60 minutes after induction of the chaperonin, 0.2 mM isopropyl-β-D-thiogalactoside (IPTG) was added to initiate production of 11β-HSD1. […]
Target sequence in this assay (P28845 with tags, fused parts or gaps): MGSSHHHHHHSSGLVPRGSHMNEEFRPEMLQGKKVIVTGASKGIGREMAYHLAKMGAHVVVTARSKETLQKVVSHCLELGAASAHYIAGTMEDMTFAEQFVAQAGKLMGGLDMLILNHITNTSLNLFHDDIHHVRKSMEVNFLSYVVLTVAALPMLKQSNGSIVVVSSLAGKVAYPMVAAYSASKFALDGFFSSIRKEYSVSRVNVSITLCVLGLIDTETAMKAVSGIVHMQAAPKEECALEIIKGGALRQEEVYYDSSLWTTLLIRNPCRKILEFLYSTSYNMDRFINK

11β-HSD1 [3] = target: T1, 11β-HSD1; assay: GuHCl-induced inactivation (conformational stability) monitored by cortisol dehydrogenation activity; format: biochemical; parameters: the first 23 amino acid residues (19 for the rat variant) of the protein, which includes the distal N-terminus and the transmembrane domain, were omitted; made in house; host or cells: E. coli BL21(DE3), pET28a derivative, co-expression of GroEL/ES; conditions: human enzyme, control (no addition) 0.25
Protocol: FIG. 4 is a graph depicting inactivation of recombinant human 11β-HSD1-catalyzed cortisol dehydrogenation with GuHCl. Protein concentration was approximately 5 μM in 50 mM Tris-HCl, pH 8.0. Solutions were exposed to denaturant, and protected by additives as indicated, for 16-18 h at 4° C. (∘) no additives; (□) 50 μM NADP^+; (□) BVT.24829 inhibitor and 50 μM NADP^+.
as §1
Target sequence in this assay (P28845 with tags, fused parts or gaps): as above

11β-HSD1 [4] = target: T1, 11β-HSD1; assay: Active site titration, cortisol dehydrogenation by 11β-HSD1 with increasing inhibitor; format: biochemical; parameters: the first 23 amino acid residues (19 for the rat variant) of the protein, which includes the distal N-terminus and the transmembrane domain, were omitted; made in house; host or cells: E. coli BL21(DE3), pET28a derivative, co-expression of GroEL/ES; conditions: dehydrogenase reaction, 50 μM cortisol, 100 μM NADP+; fitted to Morrison equation; read-out: Ki^app
Protocol: FIG. 3 is a graph depicting active site titration of highly purified, homogenous human 11β-HSD1. Fractional velocities (vi/v0) of cortisol dehydrogenation by 11β-HSD1 were determined in presence of increasing amounts of the selective and potent inhibitor BVT.24829. […] Total protein concentration was determined by amino acid analysis (triplicate measurements) assuming a molecular mass of 31.9 kDa for the His-tagged enzyme.
Enzyme activity measurements. The dehydrogenase activity of 11β-HSD1 was assayed at 25° C. in 50 mM Tris/Cl, pH 7.4, using 50 μM cortisol and 100 μM NADP^+, with a K2 spectrofluorimeter (ISS, Champaign, Ill.). The excitation and emission wavelengths were 340 nm and 460 nm, respectively. To ensure unambiguous initial rate measurements, the enzyme addition was adjusted to give a linear fluorescence increase for at least the first 2 min of reaction. Reaction rates were calculated before and after the addition of purified 11β-HSD1 to give enzymatic rates of NADP^+ reduction. The relationship between the increase of fluorescence and the rate of NADP^+ reduction was established by generating a calibration curve using freshly prepared solutions of NADPH (0-25 μM). […] Substrate and product were monitored by UV absorbance at 240 nm and concentrations were calculated by referral to corresponding calibration curves. […]
Target sequence in this assay (P28845 with tags, fused parts or gaps): as above

T2 sequence (Q6QLL4 with tags, fused parts or gaps): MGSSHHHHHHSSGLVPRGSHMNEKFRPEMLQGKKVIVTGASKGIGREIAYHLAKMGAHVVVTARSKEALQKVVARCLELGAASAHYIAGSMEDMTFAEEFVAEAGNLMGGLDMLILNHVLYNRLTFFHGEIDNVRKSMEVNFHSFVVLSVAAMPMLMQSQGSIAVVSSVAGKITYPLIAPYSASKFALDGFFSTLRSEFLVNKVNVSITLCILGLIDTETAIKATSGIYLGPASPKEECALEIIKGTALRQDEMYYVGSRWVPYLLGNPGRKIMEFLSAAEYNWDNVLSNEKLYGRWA

Row | Ki values for 11β-HSD1 (11β-HSD1 [1]) | midpoint concentration, Cm, for GuHCl-induced inactivation (guinea pig 11β-HSD1; 25 μM inhibitor + cofactor 50 μM NADP+) | midpoint concentration, Cm, for GuHCl-induced inactivation (guinea pig 11β-HSD1; 25 μM inhibitor added) [M] | improvement of yield of soluble human 11β-HSD1 (11β-HSD1 [2]) | midpoint concentration, Cm, for GuHCl-induced inactivation (11β-HSD1 [3]; inhibitor + cofactor 50 μM NADP+) | midpoint concentration, Cm, for GuHCl-induced inactivation (11β-HSD1 [3]; one equivalent of inhibitor added) [M] | Ki (11β-HSD1 [4]) [nM] | SMILES
1 | nanomolar range | – | – | – | – | – | – | Cc1c(Cl)cccc1S(=O)(=O)Nc1nc(CCN2CCOCC2=O)cs1 [BVT.3498, 3-chloro-2-methyl-N-{4-[2-(3-oxo-4-morpholinyl)ethyl]-1,3-thiazol-2-yl}benzenesulfonamide]
2 | micromolar range | 1.0 M and 0.98 M | 0.75 | – | – | – | – | CCCc1ccc(S(=O)(=O)Nc2ccsc2C(=O)N(CC)CC)cc1 [BVT.4584, N,N-diethyl-(3-{[(4-propylphenyl)sulfonyl]amino}thien-2-yl)carboxamide]
3 | nanomolar range | – | – | approximately 60 fold | 0.7 M and 0.71 M | 0.51 | 32 ± 1 | Cc1sc(NS(=O)(=O)c2cccc(Cl)c2C)nc1CCN1CCOCC1=O [BVT.24829, 3-chloro-2-methyl-N-{5-methyl-4-[2-(3-oxo-4-morpholinyl)ethyl]-1,3-thiazol-2-yl}benzenesulfonamide]

Row | SMILES | Ki values for 11β-HSD1 (11β-HSD1 [1]) | midpoint concentration, Cm, for GuHCl-induced inactivation (guinea pig 11β-HSD1; 25 μM inhibitor + cofactor 50 μM NADP+) | midpoint concentration, Cm, for GuHCl-induced inactivation (guinea pig 11β-HSD1; 25 μM inhibitor added) [M] | improvement of yield of soluble human 11β-HSD1 (11β-HSD1 [2]) | midpoint concentration, Cm, for GuHCl-induced inactivation (11β-HSD1 [3]; inhibitor + cofactor 50 μM NADP+) | midpoint concentration, Cm, for GuHCl-induced inactivation (11β-HSD1 [3]; one equivalent of inhibitor added) [M] | Ki (11β-HSD1 [4]) [nM]
4 | Cc1c(Cl)cccc1S(=O)(=O)Nc1nc(CC(=O)N2CCN(C)CC2)cs1 [BVT.2733, 3-Chloro-2-methyl-N-{4-[2-(4-methyl-1-piperazinyl)-2-oxoethyl]-1,3-thiazol-2-yl}benzenesulfonamide] | micromolar range | – | – | – | – | – | –
